Data published in patent US9061967B2 (priority 2010, dated 2015).
Where “and” joins values, the source holds several entries; their conditions need not be identical. Equal values may be shown once.

Tests used:
[1] = system: cucumber downy mildew (Pseudoperonospora cubensis); assay: whole plant or invertebrate; format: in vivo; conditions: for pest or weed control at 3.125 µg/mL / pest or weed control at 12.5 µg/mL / pest or weed control at 50 µg/mL: Pseudoperonospora cubensis, 168 h, read-out: Protectant activity (%) against cucumber downy mildew in vivo
[2] = system: cucumber gray mold (Botrytis cinerea); assay: microbe, parasite or virus in culture; format: cell-based; conditions: read-out: Inhibition rate against cucumber gray mold (%)
[3] = system: rice blast (Magnaporthe grisea); assay: microbe, parasite or virus in culture; format: cell-based; conditions: for Activity against rice blast in vitro (%): Table 10; for inhibition at 0.03 µg/mL / inhibition at 0.3 µg/mL: Pyricularia oryzae, read-out: Inhibition rate against rice blast (%)
[4] = system: corn rust (Puccinia sorghi)
[5] = system: cotton nthracnose (Colletotrichum gossypii Southw.); format: cell-based
[6] = system: rice sheath blight (Rhizoctonia solani Palo); format: cell-based
[7] = system: pear scab (Fusicladium pirina); format: cell-based
[8] = system: cucumber fusarium wilt (Fusarium oxysporum f. sp.); format: cell-based
[9] = system: rape sclertiniose (Sclerotinia sclerotiorum); format: cell-based

SMILES | pest or weed control at 3.125 µg/mL [1] [%] | pest or weed control at 12.5 µg/mL [1] [%] | pest or weed control at 50 µg/mL [1] [%] | inhibition at 0.03 µg/mL [2] [%] | inhibition at 0.1 µg/mL [2] [%] | inhibition at 0.3 µg/mL [2] [%] | inhibition at 0.03 µg/mL [3] [%] | inhibition at 0.3 µg/mL [3] [%] | further results
c1ccc(Nc2ccccc2)cc1 [diphenylamine] | 0 | 0 | 0 |  |  |  |  |  | 
Nc1c(Cl)cc([N+](=O)[O-])cc1Cl [intermediate C] | 0 | 0 | 0 |  |  |  |  |  | 
Cc1c(Cl)c([N+](=O)[O-])cc([N+](=O)[O-])c1Cl [intermediate B] | 0 | 0 | 0 |  |  |  |  |  | 
Cc1cc([N+](=O)[O-])cc([N+](=O)[O-])c1Nc1c(Cl)cc(Cl)cc1Cl [contrast ACS] | 0 | 0 | 0 | 0 | 0 | 0 | 0 | 0 | Protectant activity against cucumber downy mildew in vivo (%) ([1]; in vivo): 0%; Activity against rice blast in vitro (%) ([3]; 0.9 mg/L): 0%; Activity against rice blast in vitro (%) ([3]; 2.8 mg/L): 0%; Activity against rice blast in vitro (%) ([3]; 8.3 mg/L): 0%; Activity against rice blast in vitro (%) ([3]; 25 mg/L): 0%; Protectant activity (%) against corn rust in vivo [4]: 0%
COc1ccc(C(=CC(=O)N2CCOCC2)c2ccc(Cl)cc2)cc1OC [dimethomorph] | 35 | 80 | 100 |  |  |  |  |  | 
O=[N+]([O-])c1cc(C(F)(F)F)c(Cl)c([N+](=O)[O-])c1Nc1ncc(C(F)(F)F)cc1Cl [fluazinam] | 40 | 95 | 100 | 0 | 80 | 100 | 50 | 100 | Activity in vitro (%), cotton nthracnose [5]: 100% and 97% and 71%; Activity in vitro (%), rice sheath blight [6]: 97% and 83% and 69%; Activity in vitro (%), pear scab [7]: 94% and 89% and 47%; Activity in vitro (%), cucumber fusarium wilt [8]: 92% and 85% and 56%; Activity in vitro (%), rape sclertiniose [9]: 100% and 97% and 57%
